Test results as given in patent publication US8975291B2, “Indoles” (GlaxoSmithKline LLC, priority 2010, dated 2015).

target: T1, EZH2 within the PRC2 complex (Homo sapiens, UniProt Q15910); assay: EZH2 methyltransferase scintillation proximity assay (SPA) with PRC2 complex; assay type: biochemical; details: 3H-SAM methyl transfer to Histone H3 of HeLa mononucleosomes; read-out: EZH2 pIC50 (converted)
T1 construct: FLAG; made in house; host or cells: Sf9 cells
Description: Compounds contained herein were evaluated for their ability to inhibit the methyltransferase activity of EZH2 within the PRC2 complex. Human PRC2 complex was prepared by co-expressing each of the 5 member proteins (FLAG-EZH2, EED, SUZ12, RbAp48, AEBP2) in Sf9 cells followed by co-purification. Enzyme activity was measured in a scintillation proximity assay (SPA) where a tritiated methyl group is transferred from 3H-SAM to a lysine residue on Histone H3 of a mononucleosome, purified from HeLa cells. Mononucleosomes were captured on SPA beads and the resulting signal is read on a ViewLux plate reader.
Part A. Compound Preparation
• 1. Prepare 10 mM stock of compounds from solid in 100% DMSO. • 2. Set up an 11-point serial dilution (1:3 dilution, top concentration 10 mM) in 100% DMSO for each test compound in a 384 well plate leaving columns 6 and 18 for DMSO controls. • 3. Dispense […] of compound from the dilution plate into reaction plates (Grenier Bio-One, 384-well, Cat #784075). Part B. Reagent Preparation Prepare the following solutions: • 1. 50 mM Tris-HCl, pH 8: Per 1 L of base buffer, combine 1 M Tris-HCl, pH 8 (50 mL) and distilled water (950 mL). • 2. […] 2× Enzyme Solution: Per 10 mL of 2× Enzyme Solution, combine 1× Assay Buffer and PRC2 complex to provide a final enzyme concentration of 10 nM. • 4. SPA Bead Suspension: Per 1 mL of SPA Bead Suspension, combine PS-PEI coated LEADSeeker beads (40 mg) and ddH2O (1 mL) to provide a final concentration of 40 mg/mL. • 5. 2× Substrate Solution: Per 10 mL of 2× Substrate Solution, combine 1× Assay Buffer (9728.55 uL), 800 ug/mL mononucleosomes (125 uL), 1 mM cold SAM (4 uL), and 7.02 uM 3H-SAM (142.45 uL; 0.55 mCi/mL) to provide a final concentration of 5 ug/mL nucleosomes, 0.2 uM cold SAM, and 0.05 uM 3H-SAM. • 6. 2.67× Quench/Bead Mixture: Per 10 mL of 2.67× Quench/Bead Mixture, combine ddH2O (9358 uL), 10 mM cold SAM (267 uL), 40 mg/mL Bead Suspension (375 uL) to provide a final concentration of 100 uM cold SAM and 0.5 mg/mL SPA beads. Part C. Assay Reaction in 384-well Grenier Bio-One Plates Compound Addition • 1. Dispense […] of 100× Compound to test wells (as noted above). • 2. Dispense […] of 100% DMSO to columns 6 & 18 for high and low controls, respectively. Assay • 1. […] Dispense 5 uL/well of 2× Enzyme Solution to columns 1-17, 19-24. • 3. Spin assay plates for ˜1 minute at 500 rpm. • 4. Stack the assay plates, covering the top plate. • 5. Incubate the compound/DMSO with the enzyme for 30 minutes at room temperature. • 6. Dispense 5 uL/well of 2× Substrate Solution to columns 1-24. • 7. Spin assay plates for ˜1 minute at 500 rpm. • 8. Stack the assay plates, covering the top plate. • 9. Incubate the assay plates at room temperature for 1 hour. Quench/Bead Addition • 1. Dispense 5 uL/well of the 3× Quench/Bead Mixture to columns 1-24. • 2. Seal the top of each assay plate with adhesive TopSeal. • 3. Spin assay plates for ˜1 minute at 500 rpm. • 4. Equilibrate the plates for >20 min. Read Plates • 1. Read the assay plates on the Viewlux Plate Reader utilizing the 613 nm emission filter with a 300 s read time. Reagent addition can be done manually or with automated liquid handler. • The final DMSO concentration in this assay is 1%. • The positive control is in column 6; negative control is in column 18. • Final starting concentration of compounds is 100 μM. Part D. Data Analysis
Percent inhibition was calculated relative to the DMSO control for each compound concentration and the resulting values were fit using standard IC50 fitting parameters within the ABASE data fitting software package.

T1 sequence (Q15910 whole entry): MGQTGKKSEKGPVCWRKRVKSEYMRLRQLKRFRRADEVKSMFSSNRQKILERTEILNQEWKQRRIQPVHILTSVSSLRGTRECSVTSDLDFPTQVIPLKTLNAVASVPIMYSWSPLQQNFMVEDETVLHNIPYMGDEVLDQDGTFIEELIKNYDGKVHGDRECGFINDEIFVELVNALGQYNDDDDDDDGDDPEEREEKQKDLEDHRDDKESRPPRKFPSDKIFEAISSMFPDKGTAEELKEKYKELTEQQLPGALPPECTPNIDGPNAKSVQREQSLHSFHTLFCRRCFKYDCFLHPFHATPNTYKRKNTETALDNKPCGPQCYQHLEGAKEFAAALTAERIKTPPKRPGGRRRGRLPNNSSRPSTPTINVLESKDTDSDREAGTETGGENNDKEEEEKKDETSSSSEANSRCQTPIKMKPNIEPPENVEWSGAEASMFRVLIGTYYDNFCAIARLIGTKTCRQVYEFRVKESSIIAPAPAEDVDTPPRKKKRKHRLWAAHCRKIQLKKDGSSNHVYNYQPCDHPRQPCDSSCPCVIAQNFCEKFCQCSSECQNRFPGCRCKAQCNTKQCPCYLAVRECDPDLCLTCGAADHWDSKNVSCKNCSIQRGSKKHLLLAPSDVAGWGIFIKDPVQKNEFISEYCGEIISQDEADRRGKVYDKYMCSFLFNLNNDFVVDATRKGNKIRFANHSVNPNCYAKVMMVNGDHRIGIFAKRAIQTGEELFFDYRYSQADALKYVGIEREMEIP
T1 sequence (O75530 whole entry partner): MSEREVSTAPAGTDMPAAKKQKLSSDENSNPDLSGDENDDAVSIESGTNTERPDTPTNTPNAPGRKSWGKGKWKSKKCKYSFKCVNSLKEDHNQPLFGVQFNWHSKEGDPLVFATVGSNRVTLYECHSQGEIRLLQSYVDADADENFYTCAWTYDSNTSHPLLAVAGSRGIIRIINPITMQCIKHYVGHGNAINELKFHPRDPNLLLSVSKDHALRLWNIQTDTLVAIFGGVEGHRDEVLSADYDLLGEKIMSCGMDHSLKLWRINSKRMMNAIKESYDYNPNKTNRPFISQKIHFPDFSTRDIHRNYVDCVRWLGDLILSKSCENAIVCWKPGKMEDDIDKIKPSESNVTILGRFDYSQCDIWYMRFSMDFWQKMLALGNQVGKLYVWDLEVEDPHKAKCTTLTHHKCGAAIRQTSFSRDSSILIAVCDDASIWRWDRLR
T1 sequence (Q15022 whole entry partner): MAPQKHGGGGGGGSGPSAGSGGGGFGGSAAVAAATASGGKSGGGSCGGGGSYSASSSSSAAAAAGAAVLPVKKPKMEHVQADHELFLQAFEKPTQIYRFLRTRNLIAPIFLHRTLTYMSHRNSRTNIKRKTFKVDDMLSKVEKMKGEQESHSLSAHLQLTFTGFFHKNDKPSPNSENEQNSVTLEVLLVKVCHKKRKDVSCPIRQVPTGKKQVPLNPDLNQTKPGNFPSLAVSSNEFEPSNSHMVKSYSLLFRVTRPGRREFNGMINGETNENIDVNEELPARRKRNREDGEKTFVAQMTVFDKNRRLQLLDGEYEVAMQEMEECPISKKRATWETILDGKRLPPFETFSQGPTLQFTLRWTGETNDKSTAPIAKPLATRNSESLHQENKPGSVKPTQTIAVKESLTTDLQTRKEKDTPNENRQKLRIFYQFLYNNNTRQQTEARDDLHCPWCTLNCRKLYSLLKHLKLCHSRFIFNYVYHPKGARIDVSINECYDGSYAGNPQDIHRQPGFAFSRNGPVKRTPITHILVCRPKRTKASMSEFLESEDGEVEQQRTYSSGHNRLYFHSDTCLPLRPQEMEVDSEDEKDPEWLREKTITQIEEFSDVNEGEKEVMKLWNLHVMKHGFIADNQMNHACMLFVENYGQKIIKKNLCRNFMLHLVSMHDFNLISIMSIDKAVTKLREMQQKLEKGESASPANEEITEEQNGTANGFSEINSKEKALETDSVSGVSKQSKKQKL
T1 sequence (Q09028 whole entry partner): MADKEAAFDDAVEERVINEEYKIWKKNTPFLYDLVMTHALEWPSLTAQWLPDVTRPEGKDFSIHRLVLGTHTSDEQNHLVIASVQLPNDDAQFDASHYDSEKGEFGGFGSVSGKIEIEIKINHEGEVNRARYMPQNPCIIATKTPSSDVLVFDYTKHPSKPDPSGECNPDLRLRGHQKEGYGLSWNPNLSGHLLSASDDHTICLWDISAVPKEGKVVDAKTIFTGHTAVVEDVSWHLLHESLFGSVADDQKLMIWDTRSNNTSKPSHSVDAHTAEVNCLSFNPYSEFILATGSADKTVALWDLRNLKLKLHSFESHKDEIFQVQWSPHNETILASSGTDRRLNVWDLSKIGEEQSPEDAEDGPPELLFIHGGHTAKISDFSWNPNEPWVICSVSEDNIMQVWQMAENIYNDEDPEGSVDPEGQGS
T1 sequence (Q6ZN18 whole entry partner): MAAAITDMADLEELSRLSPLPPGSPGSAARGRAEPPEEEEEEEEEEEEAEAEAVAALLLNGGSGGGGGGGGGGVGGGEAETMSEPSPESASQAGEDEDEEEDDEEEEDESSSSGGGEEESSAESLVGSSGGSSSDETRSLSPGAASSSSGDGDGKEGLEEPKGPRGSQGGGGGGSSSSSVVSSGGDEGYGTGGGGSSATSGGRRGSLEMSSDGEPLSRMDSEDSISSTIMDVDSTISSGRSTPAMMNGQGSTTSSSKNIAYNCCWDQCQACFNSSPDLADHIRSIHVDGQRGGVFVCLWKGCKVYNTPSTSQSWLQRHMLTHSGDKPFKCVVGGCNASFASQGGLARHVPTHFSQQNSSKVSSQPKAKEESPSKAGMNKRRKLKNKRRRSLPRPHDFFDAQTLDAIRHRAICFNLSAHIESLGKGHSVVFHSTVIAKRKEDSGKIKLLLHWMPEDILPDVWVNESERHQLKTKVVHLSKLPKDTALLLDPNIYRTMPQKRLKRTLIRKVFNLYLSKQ

Row | Structure (SMILES) | IC50 [nM]
1 | Cc1cc(C)c(CNC(=O)c2cc(Nc3ccc(N4CCN(C)CC4)nc3)cc3c2c(C)cn3C(C)C)c(=O)[nH]1 [Example 361, N-[(4,6-dimethyl-2-oxo-1,2-dihydro-3-pyridinyl)methyl]-3-methyl-1-(1-methylethyl)-6-{[6-(4-methyl-1-piperazinyl)-3-pyridinyl]amino)-1H-indole-4-carboxamide] | 55
2 | Cc1cc(C)c(CNC(=O)c2cc(B(O)O)cc3c2c(C)cn3C(C)C)c(=O)[nH]1 [Example 358, [4-({[(4,6-dimethyl-2-oxo-1,2-dihydro-3-pyridinyl)methyl]amino)carbonyl)-3-methyl-1-(1-methylethyl)-1H-indol-6-yl]boronic acid] | 468
3 | Cc1cc(C)c(CNC(=O)c2cc(-c3ccc(CO)nc3)cc3c2c(C)cn3C(C)C)c(=O)[nH]1 [Example 359, N-[(4,6-dimethyl-2-oxo-1,2-dihydro-3-pyridinyl)methyl]-6-[6-(hydroxymethyl)-3-pyridinyl]-3-methyl-1-(1-methylethyl)-1H-indole-4-carboxamide] | 58.9
4 | Cc1cc(C)c(CNC(=O)c2cc(-c3ccc(CN4CCOCC4)nc3)cc3c2c(C)cn3C(C)C)c(=O)[nH]1 [Example 350, N-[(4,6-dimethyl-2-oxo-1,2-dihydro-3-pyridinyl)methyl]-3-methyl-1-(1-methylethyl)-6-[6-(4-morpholinylmethyl)-3-pyridinyl]-1H-indole-4-carboxamide] | 22.9
5 | Cc1cc(C)c(CNC(=O)c2cc(NC(=O)N3CCN(C)CC3)cc3c2c(C)cn3C(C)C)c(=O)[nH]1 [Example 362, N-[(4,6-dimethyl-2-oxo-1,2-dihydro-3-pyridinyl)methyl]-3-methyl-1-(1-methylethyl)-6-{[(4-methyl-1-piperazinyl)carbonyl]amino}-1H-indole-4-carboxamide] | 129
6 | Cc1cc(C)c(CNC(=O)c2cc(C3COC3)cc3c2c(C)cn3C(C)C)c(=O)[nH]1 [Example 360, N-[(4,6-dimethyl-2-oxo-1,2-dihydro-3-pyridinyl)methyl]-3-methyl-1-(1-methylethyl)-6-(3-oxetanyl)-1H-indole-4-carboxamide] | 288
7 | Cc1cc(C)c(CNC(=O)c2cc(-c3ccc(CN4CCN(C)CC4)nc3)cc3c2c(C)cn3C(C)C)c(=O)[nH]1 [Example 349, N-[(4,6-dimethyl-2-oxo-1,2-dihydro-3-pyridinyl)methyl]-3-methyl-1-(1-methylethyl)-6-{6-[(4-methyl-1-piperazinyl)methyl]-3-pyridinyl}-1H-indole-4-carboxamide] | 25.1
8 | Cc1cc(C)c(CNC(=O)c2cc(-c3ccc(CN4C[C@@H](C)O[C@@H](C)C4)nc3)cc3c2c(C)cn3C(C)C)c(=O)[nH]1 [Example 348, 6-(6-{[(2R,6S)-2,6-dimethyl-4-morpholinyl]methyl}-3-pyridinyl)-N-[(4,6-dimethyl-2-oxo-1,2-dihydro-3-pyridinyl)methyl]-3-methyl-1-(1-methylethyl)-1H-indole-4-carboxamide] | 36.3

same assay, conditions: EZH2 inhibition, foregoing or analogous assay; unit inferred; read-out: IC50

Row | Structure (SMILES) | IC50 [nM]
9 | CC[C@H](C)n1cc(C)c2c(C(=O)NCc3c(C)cc(C)[nH]c3=O)cc(Br)cc21 [Ex 267, (S)-6-bromo-1-(sec-butyl)-N-((4,6-dimethyl-2-oxo-1,2-dihydropyridin-3-yl)methyl)-3-methyl-1H-indole-4-carboxamide] | 20
10 | Cc1cc(C)c(CNC(=O)c2cc(Br)cc3c2c(C)cn3CC(C)N(C)C)c(=O)[nH]1 (centres unmarked) [Ex 78, 6-bromo-N-((4,6-dimethyl-2-oxo-1,2-dihydropyridin-3-yl)methyl)-1-(2-(dimethylamino)propyl)-3-methyl-1H-indole-4-carboxamide] | 1800
11 | CC[C@H](C)n1cc(C)c2c(C(=O)NCc3c(C)cc(C)[nH]c3=O)cc(-c3cccc(CN(C)C)c3)cc21 [Ex 273, 6-{3-[(Dimethylamino)methyl]phenyl}-N-[(4,6-dimethyl-2-oxo-1,2-dihydro-3-pyridinyl)methyl]-3-methyl-1-[(1S)-1-methylpropyl]-1H-indole-4-carboxamide] | 10
12 | Cc1cc(Cn2cccn2)c(CNC(=O)c2cc(Br)cc3c2c(C)cn3C(C)C)c(=O)[nH]1 [Ex 234, 6-bromo-3-methyl-1-(1-methylethyl)-N-{[6-methyl-2-oxo-4-(1H-pyrazol-1-ylmethyl)-1,2-dihydro-3-pyridinyl]methyl}-1H-indole-4-carboxamide] | 1000
13 | Cc1cc(C)c(CNC(=O)c2cc(-c3ccc(N4CCNC(C)(C)C4)nc3)cc3c2c(C)cn3C(C)C)c(=O)[nH]1 [Ex 339, N-[(4,6-dimethyl-2-oxo-1,2-dihydro-3-pyridinyl)methyl]-6-[6-(3,3-dimethyl-1-piperazinyl)-3-pyridinyl]-3-methyl-1-(1-methylethyl)-1H-indole-4-carboxamide] | 13
14 | Cc1cc(C)c(CNC(=O)c2cc(-c3ccc4[nH]cnc4c3)cc3c2c(C)cn3C(C)C)c(=O)[nH]1 [Ex 211, 6-(1H-benzimidazol-5-yl)-N-[(4,6-dimethyl-2-oxo-1,2-dihydro-3-pyridinyl)methyl]-3-methyl-1-(1-methylethyl)-1H-indole-4-carboxamide] | 14
15 | Cc1cc(C)c(CNC(=O)c2cc(-c3ccc(N4CCNCC4)nc3)cc3c2c(C)cn3C2CCCC2)c(=O)[nH]1 [Ex 275, 1-cyclopentyl-N-((4,6-dimethyl-2-oxo-1,2-dihydropyridin-3-yl)methyl)-3-methyl-6-(6-(piperazin-1-yl)pyridin-3-yl)-1H-indole-4-carboxamide] | 3
16 | CC[C@@H](C)n1cc(C)c2c(C(=O)NCc3c(C)cc(C)[nH]c3=O)cc(Br)cc21 [Ex 268, (R)-6-Bromo-1-(sec-butyl)-N-((4,6-dimethyl-2-oxo-1,2-dihydropyridin-3-yl)methyl)-3-methyl-1H-indole-4-carboxamide] | 40
17 | CC[C@@H](C)n1cc(C)c2c(C(=O)NCc3c(C)cc(C)[nH]c3=O)cc(-c3cccc(CN(C)C)c3)cc21 [Ex 274, 6-{3-[(dimethylamino)methyl]phenyl}-N-[(4,6-dimethyl-2-oxo-1,2-dihydro-3-pyridinyl)methyl]-3-methyl-1-[(1R)-1-methylpropyl]-1H-indole-4-carboxamide] | 32
18 | CCC(C)n1cc(C)c2c(C(=O)NCc3c(C)cc(C)[nH]c3=O)cc(Br)cc21 (centres unmarked) [Ex 266, 6-bromo-1-(sec-butyl)-N-((4,6-dimethyl-2-oxo-1,2-dihydropyridin-3-yl)methyl)-3-methyl-1H-indole-4-carboxamide] | 25
19 | Cc1cc(C)c(CNC(=O)c2cc(-c3ccc4c(N)n[nH]c4c3)cc3c2c(C)cn3C(C)C)c(=O)[nH]1 [Ex 212, 6-(3-amino-1H-indazol-6-yl)-N-[(4,6-dimethyl-2-oxo-1,2-dihydro-3-pyridinyl)methyl]-3-methyl-1-(1-methylethyl)-1H-indole-4-carboxamide] | 9
20 | Cc1cc(C)c(CNC(=O)c2cc(-c3ccc(OCCN(C)C)cc3)cc3c2c(C)cn3C(C)C)c(=O)[nH]1 [Ex 174, 6-(4-{[2-(dimethylamino)ethyl]oxy}phenyl)-N-[(4,6-dimethyl-2-oxo-1,2-dihydro-3-pyridinyl)methyl]-3-methyl-1-(1-methylethyl)-1H-indole-4-carboxamide] | 18
